Experimental data as given in patent US5587360A, “Platelet adhesion inhibitor” (Merck Patent GmbH, priority 1990, dated 1996).
Like-named read-outs stand apart in the source and are kept apart here.

B1: SBTI: soybean trypsin inhibitor (protein, UniProt P01070 25-205, looked up)
Trypsin inhibitor A: DFVLDNEGNPLENGGTYYILSDITAFGGIRAAPTGNERCPLTVVQSRNELDKGIGTIISSPYRIRFIAEGHPLSLKFDSFAVIMLCVGIPTEWSVVEDLPEGPAVKIGENKDAMDGWFRLERVSDDEFNNYKLVFCPQQAEDDKCGDIGISIDHDDGTRRLVVSKNKPLVVQFQKLDKESL

Tested on: leech-derived protein according to the invention
Assay: Effect of typical inhibitors on the activity of the protein
Type: biochemical, Hirudo medicinalis
Conditions: for IC50: read-out: IC50 (mM), dose of inhibitor which gave half maximal inhibition
Method: Any hydrolysis of the chromogenic substrates. S2251, S2586, S2288. […] A preferred assay method is described below. Preparations for assay are reconstituated or diluted in assay buffer: 50 mM Tris, 0.2M NaCl, 0.05% casein (Hammerstan grade from British Drug Houses), 0.1% Brij 35, 0.01% sodium azide, pH8.0. Activity is det.ermined using modification of the AZOCCLL assay adapted to microtitre plates. Aliquots (100 microliters) of protein. in a range of dilutions in assay buffer, are incubated with a suspension of washed substrate (100 microliters: 10mg/ml) at 37 degrees Celsius. At the end of the incubation period which varies according to the experiment and dose of protein, the undigested substrate is sedimented by centrifugation and aliquots (100 microliters) of the supernatants transferred to another plate in which the absorbance at 560 nm is measured. Protein activity can be expressed as milliequivalent units of bacterial collagenase (Clostridium histolyticum) assayed at the same time under the same conditions.
The effect of some typical inhibitors was examined. The protein (5000 units/ml of a preparation of specific activity 10,000-20,000 units/mg) was incubated with DTT, cysteine, EDTA and leech anti-chymotrypsin in a range of concentrations with substrate. […] The effects of orthophenanthroline (2 mM): TIMP (tissue inhibitor of metallo-proteinase) 0.4 micrograms with APMA (0.5 mM) and with pre-incubation for 15 min): SBTI (7.5 micrograms and 30 min pre-incubation): and PMSF ([…] with 30 min pre-incubation) were also studied.

[1] = protein 5000 units/ml, o-phenanthroline 2 mM, TIMP 0.4 micrograms, SBTI 7.5 micrograms, PMSF single dose only

Row | Molecule | effect of inhibitor on activity of the protein (protein 5000 units/ml) | IC50 (mM), dose of inhibitor which gave half maximal inhibition [1] | IC50 [1] | effect of inhibitor on activity of the protein | IC50
1 | c1cnc2c(c1)ccc1cccnc12 [o-Phenanthroline] | did not inhibit activity | No effect | – | – | –
2 | O[C@H](CS)[C@H](O)CS (racemic) [Dithiothreitol] | destroyed activity | – | 0.2 mM | – | –
3 | N[C@@H](CS)C(=O)O [Cysteine] | destroyed activity | – | 3 mM | – | –
4 | O=C(O)CN(CCN(CC(=O)O)CC(=O)O)CC(=O)O [EDTA] | – | – | – | destroyed activity | 2 mM
5 | O=S(=O)(F)Cc1ccccc1 [PMSF] | did not inhibit activity | No effect | – | – | –
6 | [N-]=[N+]=[N-] [sodium azide] | did not inhibit activity | – | – | – | –
7 | B1 | did not inhibit activity | No effect | – | – | –
